From patent US11225486B2, “Tertiary alcohols as PI3K-γ inhibitors” (Incyte Corporation, priority 2017, dated 2022)
Counter-ions that a name gives are not always drawn. Like-named read-outs stand apart in the source and are kept apart here.

How the values were obtained:
[1] = target: PI3Kδ (p110δ/p85α) Recombinant Human Protein (Homo sapiens (Human), UniProt O00329); assay: PI3Kδ scintillation proximity assay; format: biochemical; details: read-out: P13Kδ IC50
Description: PI3Kδ Scintillation Proximity Assay
[γ-^33P]ATP (10 mCi/mL) and Wheat Germ Agglutinin (WGA) YSi SPA Scintillation Beads was purchased from Perkin-Elmer (Waltham, Mass.). […] PI3Kδ (p110δ/p85α) Recombinant Human Protein was purchased from Eurofins (St Charles, Mo.). ATP, MgCl2, DTT, EDTA, MOPS and CHAPS were purchased from SigmaAldrich (St. Louis, Mo.).
The kinase reaction was conducted in polystyrene 384-well Greiner Bio-one white plate from Thermo Fisher Scientific in a final volume of 25 μL. Inhibitors were first diluted serially in DMSO and added to the plate wells before the addition of other reaction components. The final concentration of DMSO in the assay was 2%. The PI3Kδ assay was carried out at room temperature in 20 mM MOPS, pH 6.7, 10 mM MgCl2, 5 mM DTT and CHAPS 0.03%. Reactions were initiated by the addition of ATP, the final reaction mixture consisted of 20 μM PIP2, 2 μM ATP, 0.5 μCi [γ-^33P] […] The final concentration of SPA beads is 1.0 mg/mL. After the plate sealing, plates were shaken overnight at room temperature and centrifuged at 1500 rpm for 10 min, the radioactivity of the product was determined by scintillation counting on Topcount (PerkinElmer). IC50 determination was performed by fitting the curve of percent of the solvent control activity versus the log of the inhibitor concentration using the GraphPad Prism 6.0 software.

[2] = target: PI3Kγ (p110γ) Recombinant Human Protein (Homo sapiens (Human), UniProt P48736); assay: PI3K-γ scintillation proximity assay; format: biochemical
From the text: Example B. PI3K-γ Scintillation Proximity Assay
[γ-^33P]ATP (10 mCi/mL) and Wheat Germ Agglutinin (WGA) YSi SPA Scintillation Beads was purchased from Perkin-Elmer (Waltham, Mass.). Lipid kinase substrate, D-myo-Phosphatidylinositol 4,5-bisphosphate (PtdIns(4,5)P2)D (+)-sn-1,2-di-O-octanoylglyceryl, 3-O-phospho linked (PIP2), CAS 204858-53-7, was purchased from Echelon Biosciences (Salt Lake City, Utah). PI3Kγ (p110γ) Recombinant Human Protein was purchased from Life technology (Grand Island, N.Y.). ATP, MgCl2, DTT, EDTA, MOPS and CHAPS were purchased from Sigma-Aldrich (St. Louis, Mo.).
The kinase reaction was conducted in polystyrene 384-well Greiner Bio-one white plate from Thermo Fisher Scientific in a final volume of 25 μL. Inhibitors were first diluted serially in DMSO and added to the plate wells before the addition of other reaction components. The final concentration of DMSO in the assay was 2%. The PI3Kγ assay was carried out at room temperature in 20 mM MOPS, pH 6.7, 10 mM MgCl2, 5 mM DTT and CHAPS 0.03%. Reactions were initiated by the addition of ATP, the final reaction mixture consisted of 20 μM PIP2, 2 μM ATP, 0.5 μCi [γ-^33P] ATP, 13 nM PI3Kγ. Reactions were incubated for 120 min and terminated by the addition of 40 μL SPA beads suspended in quench buffer: 163 mM potassium phosphate pH 7.8, 20% glycerol, 25 mM EDTA. The final concentration of SPA beads is 1.0 mg/mL. After the plate sealing, plates were shaken overnight at room temperature and centrifuged at 1500 rpm for 10 min, the radioactivity of the product was determined by scintillation counting on Topcount (Perkin-Elmer). IC50 determination was performed by fitting the curve of percent of the solvent control activity versus the log of the inhibitor concentration using the GraphPad Prism 6.0 software.

[3] = tested on: Phosphorylated Ribosomal Protein S6 (RPS6) in THP-1 cells; assay: THP-1 RPS6 ELISA assay; format: cell-based; details: Homo sapiens, THP-1, THP-1 cells, 10 nM MCP-1 stimulation, phospho-RPS6 ELISA; read-out: PI3Kγ_THP1_RPS6_ELISA IC50
Description: Example A. THP-1 RPS6 ELISA Assay
To measure the Phosphorylated Ribosomal Protein S6 (RPS6) in cell lysates, THP-1 cells (Human Acute Monocytic Leukemia) are purchased from ATCC (Manassas, Va.) and maintained in RPMI with 10% FBS (Gibco/Life Technologies, Carlsbad, Calif.). For the assay, THP-1 cells are serum starved overnight in RPMI, then plated in RPMI (2×10^5 cells/well in 90 μL) into 96-well flat-bottom tissue culture treated plates (Corning, Corning, N.Y.), in the presence or absence of a concentration range of test compounds. Covered plates are incubated for 2 hours at 37° C., 5% CO2 then treated with or without 10 nM MCP-1(MYBioSource, San Diego, Calif.) for 15 minutes at 37° C., 5% CO2. Plates are centrifuged at 1600 RPM and supernatants are removed. Cells are lysed in Lysis Buffer (Cell Signaling, Danvers, Mass.) with Protease Inhibitor (Calbiochem/EMD, Germany), PMSF (Sigma, St Louis Mo.), HALTS (Thermo Fisher, Rockford, Ill.) for 30 min on wet ice. Cell lysates are frozen at −80° C. before testing. The lysates are tested in the Human/Mouse/Rat Phospho-RPS6 ELISA (R&D Systems, Inc. Minn, Minn.). The plate is measured using a microplate reader (SpectraMax M5—Molecular Devices, LLC Sunnyvale, Calif.) set to 450 nm with a wavelength correction of 540. […]

[4] = 20 μM PIP2, 2 μM ATP, 3.4 nM PI3Kδ
[5] = 20 μM PIP2, 2 μM ATP, 13 nM PI3Kγ

PI3Kδ (p110δ/p85α) Recombinant Human Protein, sequence (O00329 whole entry): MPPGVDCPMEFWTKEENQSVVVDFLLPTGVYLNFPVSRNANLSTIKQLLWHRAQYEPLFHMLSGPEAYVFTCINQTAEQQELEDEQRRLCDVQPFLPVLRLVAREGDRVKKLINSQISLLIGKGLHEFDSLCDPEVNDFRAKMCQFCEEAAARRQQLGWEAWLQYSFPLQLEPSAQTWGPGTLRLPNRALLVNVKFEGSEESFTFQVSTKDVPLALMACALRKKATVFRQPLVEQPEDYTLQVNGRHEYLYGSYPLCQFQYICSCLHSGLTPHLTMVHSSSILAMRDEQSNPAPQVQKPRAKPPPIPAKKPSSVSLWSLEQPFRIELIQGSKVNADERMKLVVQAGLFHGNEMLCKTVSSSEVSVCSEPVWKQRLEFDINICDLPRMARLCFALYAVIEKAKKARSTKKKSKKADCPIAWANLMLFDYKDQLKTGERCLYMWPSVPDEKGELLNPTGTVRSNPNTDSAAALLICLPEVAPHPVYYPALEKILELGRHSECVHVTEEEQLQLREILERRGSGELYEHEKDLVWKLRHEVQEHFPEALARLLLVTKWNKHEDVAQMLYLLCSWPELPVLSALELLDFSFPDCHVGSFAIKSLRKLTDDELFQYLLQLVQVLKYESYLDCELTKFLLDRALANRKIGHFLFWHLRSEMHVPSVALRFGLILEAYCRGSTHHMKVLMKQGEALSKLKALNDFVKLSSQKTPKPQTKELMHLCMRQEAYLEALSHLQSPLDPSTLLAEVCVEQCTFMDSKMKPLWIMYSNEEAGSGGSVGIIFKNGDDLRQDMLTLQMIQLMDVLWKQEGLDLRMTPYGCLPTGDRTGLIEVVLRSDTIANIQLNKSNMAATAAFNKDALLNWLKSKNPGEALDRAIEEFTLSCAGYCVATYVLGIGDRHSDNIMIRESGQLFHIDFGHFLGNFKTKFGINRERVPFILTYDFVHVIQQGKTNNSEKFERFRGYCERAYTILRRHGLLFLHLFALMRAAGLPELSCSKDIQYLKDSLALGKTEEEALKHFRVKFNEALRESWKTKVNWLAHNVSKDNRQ
PI3Kδ (p110δ/p85α) Recombinant Human Protein, sequence (P27986 whole entry partner): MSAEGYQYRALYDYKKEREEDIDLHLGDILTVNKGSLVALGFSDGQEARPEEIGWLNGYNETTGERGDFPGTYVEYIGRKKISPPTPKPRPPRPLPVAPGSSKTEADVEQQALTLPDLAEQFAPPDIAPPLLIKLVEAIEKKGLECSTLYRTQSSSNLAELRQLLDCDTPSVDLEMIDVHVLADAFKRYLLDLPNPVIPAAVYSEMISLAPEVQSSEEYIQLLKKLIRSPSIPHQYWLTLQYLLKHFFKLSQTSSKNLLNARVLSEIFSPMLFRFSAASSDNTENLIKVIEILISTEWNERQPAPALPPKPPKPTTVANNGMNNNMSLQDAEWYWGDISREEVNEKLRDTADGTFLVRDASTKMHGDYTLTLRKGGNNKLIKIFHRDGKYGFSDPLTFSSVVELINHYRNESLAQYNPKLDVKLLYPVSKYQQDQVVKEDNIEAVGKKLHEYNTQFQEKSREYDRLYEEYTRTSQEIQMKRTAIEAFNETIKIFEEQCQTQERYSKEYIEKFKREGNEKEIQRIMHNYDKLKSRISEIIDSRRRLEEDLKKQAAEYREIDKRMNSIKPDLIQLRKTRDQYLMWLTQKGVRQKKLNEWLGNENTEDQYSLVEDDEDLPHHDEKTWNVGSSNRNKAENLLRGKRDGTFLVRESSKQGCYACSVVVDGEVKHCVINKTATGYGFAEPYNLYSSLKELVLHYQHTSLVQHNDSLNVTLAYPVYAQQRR
PI3Kγ (p110γ) Recombinant Human Protein, sequence (P48736 whole entry): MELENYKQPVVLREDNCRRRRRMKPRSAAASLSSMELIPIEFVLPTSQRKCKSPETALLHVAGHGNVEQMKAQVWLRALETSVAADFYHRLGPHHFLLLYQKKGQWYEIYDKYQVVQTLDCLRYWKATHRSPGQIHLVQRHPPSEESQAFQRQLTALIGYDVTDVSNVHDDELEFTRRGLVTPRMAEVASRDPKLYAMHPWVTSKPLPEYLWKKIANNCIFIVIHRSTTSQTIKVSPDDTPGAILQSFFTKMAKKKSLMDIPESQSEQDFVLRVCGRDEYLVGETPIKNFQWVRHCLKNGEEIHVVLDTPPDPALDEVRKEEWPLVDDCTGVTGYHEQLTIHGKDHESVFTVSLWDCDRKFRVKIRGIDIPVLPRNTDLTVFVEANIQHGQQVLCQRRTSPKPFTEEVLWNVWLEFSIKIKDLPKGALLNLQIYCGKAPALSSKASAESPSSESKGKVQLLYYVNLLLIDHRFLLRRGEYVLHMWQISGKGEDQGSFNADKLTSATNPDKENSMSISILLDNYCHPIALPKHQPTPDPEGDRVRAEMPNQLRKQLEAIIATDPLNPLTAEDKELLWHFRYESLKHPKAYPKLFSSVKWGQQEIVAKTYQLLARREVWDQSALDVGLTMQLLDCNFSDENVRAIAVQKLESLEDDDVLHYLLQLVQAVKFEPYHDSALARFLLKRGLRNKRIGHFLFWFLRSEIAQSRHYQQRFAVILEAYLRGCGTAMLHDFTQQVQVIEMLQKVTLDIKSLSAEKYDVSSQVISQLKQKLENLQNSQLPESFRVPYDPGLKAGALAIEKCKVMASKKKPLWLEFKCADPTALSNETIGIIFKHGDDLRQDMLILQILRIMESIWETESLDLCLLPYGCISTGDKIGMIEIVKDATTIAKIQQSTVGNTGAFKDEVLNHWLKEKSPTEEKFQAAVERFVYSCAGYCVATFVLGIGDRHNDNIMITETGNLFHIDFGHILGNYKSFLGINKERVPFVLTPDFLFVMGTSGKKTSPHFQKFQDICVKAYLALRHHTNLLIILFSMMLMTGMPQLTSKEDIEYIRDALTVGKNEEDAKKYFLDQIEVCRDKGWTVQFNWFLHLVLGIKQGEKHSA

SMILES | IC50 [3] | IC50 [1, 4] | IC50 [2, 5] | IC50 [1] | IC50 [2]
Cc1ccc(C(O)(CO)C(F)(F)F)cc1-c1cnc2c(N)nc(-c3cnco3)cn12 (stereo not drawn) [Example 71, 2-(3-(8-Amino-6-(oxazol-5-yl)imidazo[1,2-a]pyrazin-3-yl)-4-methylphenyl)-3,3,3-trifluoropropane-1,2-diol trifluoroacetate salt] | – | – | – | < 100 nM | < 100 nM
Cc1ccc(C(C)(O)C(F)F)cc1-c1cnc2c(N)nc(-c3c[nH]nc3C)cn12 (stereo not drawn) [Example 47, 2-(3-(8-Amino-6-(3-methyl-1H-pyrazol-4-yl)imidazo[1,2-a]pyrazin-3-yl)-4-methylphenyl)-1,1-difluoropropan-2-ol, 1.2TFA] | < 100 nM | < 100 nM | < 100 nM | – | –
Cc1ncc(-c2cn3c(-c4cc(C(O)(CO)C(F)(F)F)ccc4C)cnc3c(N)n2)s1 (stereo not drawn) [Example 70, 2-(3-(8-Amino-6-(2-methylthiazol-5-yl)imidazo[1,2-a]pyrazin-3-yl)-4-methylphenyl)-3,3,3-trifluoropropane-1,2-diol trifluoroacetate salt] | – | – | – | < 100 nM | < 100 nM
Cc1ccc(C(O)(CO)C(F)(F)F)cc1-c1cnc2c(N)nc(-c3cnn(C)c3)cn12 (stereo not drawn) [Example 69, 2-(3-(8-Amino-6-(1-methyl-1H-pyrazol-4-yl)imidazo[1,2-a]pyrazin-3-yl)-4-methylphenyl)-3,3,3-trifluoropropane-1,2-diol trifluoroacetate salt] | – | – | – | < 100 nM | < 100 nM
Cc1ncc(-c2cn3c(-c4cc(C(O)(CO)C(F)(F)F)ccc4C)cnc3c(N)n2)o1 (single isomer, unassigned) [Example 68, 2-(3-(8-Amino-6-(2-methyloxazol-5-yl)imidazo[1,2-o]pyrazin-3-yl)-4-methylphenyl)-3,3,3-trifluoropropane-1,2-diol] | – | < 100 nM | < 100 nM | – | –

More lines, main results first:

IC50 [3] | IC50 [1, 4] | IC50 [2, 5] | SMILES | IC50 [1] | IC50 [2]
– | < 100 nM | < 100 nM | Cc1ccc(C(O)(C(N)=O)C(F)(F)F)cc1-c1cnc2c(N)nc(C(C)(C)O)cn12 (single isomer, unassigned) [Example 255, 2-(3-(8-Amino-6-(2-hydroxypropan-2-yl)imidazo[1,2-a]pyrazin-3-yl)-4-methylphenyl)-3,3,3-trifluoro-2-hydroxypropanamide trifluoroacetate salt (single enantiomer)] | – | –
– | 100 to 500 nM | < 100 nM | Cc1ccc(C(O)(C(N)=O)C(F)(F)F)cc1-c1cnc2c(N)nc(C(=O)NC34CCC(O)(CC3)C4)cn12 (single isomer, unassigned) [Example 260, 8-Amino-3-(5-(3-amino-1,1,1-trifluoro-2-hydroxy-3-oxopropan-2-yl)-2-methylphenyl)-N-(4-hydroxybicyclo[2.2.1]heptan-1-yl)imidazo[1,2-a]pyrazine-6-carboxamide trifluoroacetate salt (single enantiomer)] | – | –
